Test results published in patent publication CN110194737A, “一种联水杨醛缩3-氯-2-肼基吡啶席夫碱合成方法与应用” (Harbin University of Science and Technology, priority 2019, dated 2019).

Tests used:
[1] = Fluorescence titration of the Schiff base probe with Zn2+ (Examples 2-7, FIG. 4); details: for fluorescence intensity: probe 2×10^-5mol/L in methanol, 3mL, EX=350nm, EM=475nm
[2] = Quantitative analysis of Zn2+: linear relation of fluorescence intensity and Zn2+ concentration, detection limit (Examples 8-11, FIG. 5)
[3] = Qualitative/selective recognition of metal ions by the probe, Zn2+ (FIG. 6)
[4] = Qualitative/selective recognition of metal ions by the probe, Cd2+ (FIG. 6); details: 100uL of 1×10^-2mol/L Cd2+; probe solution 3mL; EX=350nm, EM=475nm
[5] = Anti-interference of the probe for Zn2+ in the presence of other metal ions (FIG. 7); details: for fluorescence intensity: EX=350nm, EM=475nm

CC(C)(C)c1cc(C=NNc2ncccc2Cl)c(O)c(-c2cc(C(C)(C)C)cc(C=NNc3ncccc3Cl)c2O)c1 [荧光探针, 5,5'-二叔丁基-2,2'-二羟基联苯-3,3'-二甲醛缩3-氯-2-肼基吡啶席夫碱]
fluorescence intensity ([1]; 1μL of 1×10^-2mol/L Zn2+ added): 83.56
fluorescence intensity ([1]; 6μL of 1×10^-2mol/L Zn2+ added): 468.2
fluorescence intensity ([1]; 12μL of 1×10^-2mol/L Zn2+ added): 852.4
fluorescence intensity ([1]; 18μL of 1×10^-2mol/L Zn2+ added): 952.4
visible change under UV lamp ([1]; 365nm, after recognition of Zn2+): 在紫外灯365nm下即可看到明显变化
fluorescence intensity enhancement relative to blank ([1]; after recognition of Zn2+ (18μL of 1×10^-2mol/L Zn2+) vs probe blank): 34 fold
fluorescence intensity ([1]; probe blank solution without Zn2+, slits 5nm): 28.02
fluorescence intensity ([2]; Zn2+ 30μM in the system, EX=350nm, EM=475nm): 119.8
fluorescence intensity ([2]; Zn2+ 50μM in the system, EX=350nm, EM=475nm): 440.2
fluorescence intensity ([2]; Zn2+ 70μM in the system, EX=350nm, EM=475nm): 765.9
detection limit ([2]; Zn2+, calculated): 6.05e-08 mol/L
linear range of fluorescence intensity vs Zn2+ concentration ([2]; good linear relation, EX=350nm, EM=475nm): 30 to 70 µM
fluorescence intensity ([3]; 100uL of 1×10^-2mol/L Zn2+, probe solution 3mL, EX=350nm, EM=475nm): 923.5
selectivity of recognition of Zn2+ ([3]; vs 18 other metal ions, 100uL of 1×10^-2mol/L each): 较好的选择性
fluorescence intensity [4]: 300.2
fluorescence intensity ([5]; 100uL Zn2+ plus 100uL Ba2+ (1×10^-2mol/L each)): 694.5
fluorescence intensity ([5]; 100uL Zn2+ plus equal volume of Ca2+ (1×10^-2mol/L each)): 914.6
interference by other metal ions in recognition of Zn2+ ([5]; other metal ions coexisting with Zn2+): 可避免其它金属离子共存时产生的干扰,可实现对Zn2+的专一性识别
